From the supplement of paper PMC11451515

Experiments:
Conditions in all cases: 48 h
NOMO1 [1] = test: cell viability relative to DMSO control; higher = less cytotoxic
Outline: (§1)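 Library compounds in DMSO were pin-dosed in an 11-point threefold series (47 μM to 0.79 nM) onto leukemia cells in 1536-well plates (5 μl). Plates held 500 cells/well of NOMO1 or SEM or 1000 cells/well of P12-Ichikawa, each adapted for at least four passages in each medium. Luminescence was read with CellTiter-Glo One after 48 h at 37°C. Viability means the per-plate percentage relative to DMSO wells, using cell-free wells as background.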

SEM cells [2] = test: as above
Outline: as §1

P12-Ichikawa [3] = test: as above
Outline: as §1

NOMO1 [4] = test: AUC of viability dose-response curve (% viability x log10 dose units); higher = less sensitive
Outline: (§2)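 In 1536-well plates, leukemia cells adapted to each medium (500 or 1000 cells/well) were exposed for 48 h at 37°C to library compounds in DMSO across 11 threefold doses, 47 μM down to 0.79 nM. Viability was read by CellTiter-Glo One luminescence and normalised per plate to DMSO and cell-free wells. A four-parameter log-logistic fit over log10 doses was integrated by trapezoidal rule. This yielded the area under the curve, with over-full-viability curves scaled and quality-control failures dropped.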

SEM cells [5] = test: as above
Outline: as §2

P12-Ichikawa [6] = test: as above
Outline: as §2

CCCc1nc2c(C)cc(-c3nc4ccccc4n3C)cc2n1Cc1ccc(-c2ccccc2C(=O)O)cc1
cell viability [%]
Conditions | NOMO1 [1] | P12-Ichikawa [3] | SEM cells [2]
HPLM + 10% dialyzed FBS, 0.000781 µM | 117 | 123 | 117
HPLM + 10% dialyzed FBS, 0.00234 µM | 102 | 124 | 115
HPLM + 10% dialyzed FBS, 0.00702 µM | 112 | 122 | 123
HPLM + 10% dialyzed FBS, 0.0211 µM | 110 | 125 | 120
HPLM + 10% dialyzed FBS, 0.0632 µM | 139 | 126 | 124
HPLM + 10% dialyzed FBS, 0.19 µM | 140 | 135 | 140
HPLM + 10% dialyzed FBS, 0.569 µM | 136 | 130 | 100
HPLM + 10% dialyzed FBS, 1.71 µM | 138 | 127 | 71.4
HPLM + 10% dialyzed FBS, 5.12 µM | 127 | 123 | 127
HPLM + 10% dialyzed FBS, 15.4 µM | 134 | 133 | 140
HPLM + 10% dialyzed FBS, 46.1 µM | 134 | 123 | 144
RPMI 5 mM glucose + 10% FBS, 0.000781 µM | 123 | – | 114
RPMI 5 mM glucose + 10% FBS, 0.00234 µM | 123 | – | 121
RPMI 5 mM glucose + 10% FBS, 0.00702 µM | 139 | – | 152
RPMI 5 mM glucose + 10% FBS, 0.0211 µM | 126 | – | 133
RPMI 5 mM glucose + 10% FBS, 0.0632 µM | 150 | – | 124
RPMI 5 mM glucose + 10% FBS, 0.19 µM | 144 | – | 124
RPMI 5 mM glucose + 10% FBS, 0.569 µM | 131 | – | 101
RPMI 5 mM glucose + 10% FBS, 1.71 µM | 143 | – | 84.1
RPMI 5 mM glucose + 10% FBS, 5.12 µM | 150 | – | 159
RPMI 5 mM glucose + 10% FBS, 15.4 µM | 145 | – | 138
RPMI 5 mM glucose + 10% FBS, 46.1 µM | 132 | – | 137
RPMI 5 mM glucose + 10% dialyzed FBS, 0.000781 µM | – | – | 103
RPMI 5 mM glucose + 10% dialyzed FBS, 0.00234 µM | – | – | 138
RPMI 5 mM glucose + 10% dialyzed FBS, 0.00702 µM | – | – | 119
RPMI 5 mM glucose + 10% dialyzed FBS, 0.0211 µM | – | – | 92.4
RPMI 5 mM glucose + 10% dialyzed FBS, 0.0632 µM | – | – | 120
RPMI 5 mM glucose + 10% dialyzed FBS, 0.19 µM | – | – | 125
RPMI 5 mM glucose + 10% dialyzed FBS, 0.569 µM | – | – | 87.8
RPMI 5 mM glucose + 10% dialyzed FBS, 1.71 µM | – | – | 64
RPMI 5 mM glucose + 10% dialyzed FBS, 5.12 µM | – | – | 120
RPMI 5 mM glucose + 10% dialyzed FBS, 15.4 µM | – | – | 116
RPMI 5 mM glucose + 10% dialyzed FBS, 46.1 µM | – | – | 132

AUC of viability dose-response curve
Conditions | NOMO1 [4] | P12-Ichikawa [6] | SEM cells [5]
HPLM + 10% dialyzed FBS | 446 | 470 | 456
RPMI 5 mM glucose + 10% FBS | 463 | 382 | 463
RPMI 5 mM glucose + 10% dialyzed FBS | 465 | 465 | 472

COc1ccccc1OCCNCC(O)COc1cccc2[nH]c3ccccc3c12 (configuration not stated)
cell viability [%]
Conditions | NOMO1 [1] | P12-Ichikawa [3] | SEM cells [2]
HPLM + 10% dialyzed FBS, 0.000781 µM | 132 | 121 | 114
HPLM + 10% dialyzed FBS, 0.00234 µM | 124 | 124 | 131
HPLM + 10% dialyzed FBS, 0.00702 µM | 116 | 124 | 105
HPLM + 10% dialyzed FBS, 0.0211 µM | 121 | 118 | 126
HPLM + 10% dialyzed FBS, 0.0632 µM | 123 | 119 | 115
HPLM + 10% dialyzed FBS, 0.19 µM | 131 | 117 | 123
HPLM + 10% dialyzed FBS, 0.569 µM | 139 | 122 | 124
HPLM + 10% dialyzed FBS, 1.71 µM | 117 | 119 | 134
HPLM + 10% dialyzed FBS, 5.12 µM | 139 | 109 | 115
HPLM + 10% dialyzed FBS, 15.4 µM | 123 | 113 | 113
HPLM + 10% dialyzed FBS, 46.1 µM | 116 | 100 | 87.3
RPMI 5 mM glucose + 10% FBS, 0.000781 µM | 116 | – | 107
RPMI 5 mM glucose + 10% FBS, 0.00234 µM | 112 | – | 114
RPMI 5 mM glucose + 10% FBS, 0.00702 µM | 114 | – | 98.6
RPMI 5 mM glucose + 10% FBS, 0.0211 µM | 119 | – | 118
RPMI 5 mM glucose + 10% FBS, 0.0632 µM | 112 | – | 125
RPMI 5 mM glucose + 10% FBS, 0.19 µM | 103 | – | 123
RPMI 5 mM glucose + 10% FBS, 0.569 µM | 113 | – | 121
RPMI 5 mM glucose + 10% FBS, 1.71 µM | 113 | – | 133
RPMI 5 mM glucose + 10% FBS, 5.12 µM | 118 | – | 124
RPMI 5 mM glucose + 10% FBS, 15.4 µM | 113 | – | 96.3
RPMI 5 mM glucose + 10% FBS, 46.1 µM | 102 | – | 91.6
RPMI 5 mM glucose + 10% dialyzed FBS, 0.000781 µM | 123 | 119 | 115
RPMI 5 mM glucose + 10% dialyzed FBS, 0.00234 µM | 120 | 115 | 117
RPMI 5 mM glucose + 10% dialyzed FBS, 0.00702 µM | 119 | 119 | 91.8
RPMI 5 mM glucose + 10% dialyzed FBS, 0.0211 µM | 132 | 119 | 119
RPMI 5 mM glucose + 10% dialyzed FBS, 0.0632 µM | 114 | 122 | 120
RPMI 5 mM glucose + 10% dialyzed FBS, 0.19 µM | 128 | 122 | 132
RPMI 5 mM glucose + 10% dialyzed FBS, 0.569 µM | 144 | 115 | 119
RPMI 5 mM glucose + 10% dialyzed FBS, 1.71 µM | 118 | 124 | 128
RPMI 5 mM glucose + 10% dialyzed FBS, 5.12 µM | 129 | 112 | 118
RPMI 5 mM glucose + 10% dialyzed FBS, 15.4 µM | 124 | 112 | 107
RPMI 5 mM glucose + 10% dialyzed FBS, 46.1 µM | 112 | 99.6 | 93.5

AUC of viability dose-response curve
Conditions | NOMO1 [4] | P12-Ichikawa [6] | SEM cells [5]
HPLM + 10% dialyzed FBS | 476 | 461 | 467
RPMI 5 mM glucose + 10% FBS | 465 | 468 | 463
RPMI 5 mM glucose + 10% dialyzed FBS | 474 | 468 | 467
